Where “and” joins values, the source holds several entries; their conditions need not be identical. Equal values may be shown once.
biological target: T1, Bisphosphoglycerate mutase (Homo sapiens, UniProt P07738); test: BPGM Synthase Assay
T1 sequence (P07738 whole entry): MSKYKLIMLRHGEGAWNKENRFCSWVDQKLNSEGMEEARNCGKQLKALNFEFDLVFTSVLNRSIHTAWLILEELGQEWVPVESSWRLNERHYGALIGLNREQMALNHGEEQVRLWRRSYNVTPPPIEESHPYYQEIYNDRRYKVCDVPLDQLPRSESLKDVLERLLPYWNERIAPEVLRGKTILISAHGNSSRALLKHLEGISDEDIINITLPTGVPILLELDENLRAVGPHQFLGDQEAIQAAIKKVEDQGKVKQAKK
Procedure: To the assay plate was added Enzyme Solution (20 uL) to columns 2-22 and 24 of the assay plate. To columns 1 and 23 was added GAPDH Solution (20 uL). A separate compound plate was prepared at the desired concentrations and all wells were normalized with 5% DMSO. The compound plate was incubated for 30 minutes at RT. Next, the substrate solution (20 μL) was dispensed to all reaction wells and the plate was incubated for 60 minutes at RT. Koningic acid (1 μL) was added and the plate was incubated for 10 minutes at RT. […] Next, Resazurin Solution (10 μL) was added to all reaction wells and the plate was incubated for 30 minutes at RT.

Which IC50 does the source give for Cc1nc(COc2ccc(F)cn2)sc1-c1cccc(-c2ccc(C(=O)O)c(O)c2)c1 [US20230348450, Example 1] here?
Its IC50 is 1500 nM and 1000 nM.

How did the IC50 turn out when Cc1nc(COc2ncccn2)sc1-c1cccc(-c2ccc(S(=O)(=O)CC(=O)O)cc2)n1 [US20230348450, Example 2] was run?
The IC50 was 146 nM.

Which IC50 does the source give for Cc1nc(COc2ncccn2)sc1-c1cccc(-c2cc(C(=O)O)cs2)n1 [US20230348450, Example 3] here?
Its IC50 is 260 nM and 180 nM.

For Cc1nc(COc2ccccn2)sc1-c1cccc(-c2ccc(C(=O)O)c(O)c2)c1 [US20230348450, Example 4], which IC50 is on record?
Its IC50 is 590 nM and 710 nM.

Cc1nc(COc2ncccn2)sc1-c1cccc(-c2ccc(C(=O)O)c(O)c2)n1 [US20230348450, Example 6] was tested. Which IC50 did it give?
The IC50 was 70 nM.

How did the IC50 turn out when Cc1nc(COCC(=O)N(C)C)sc1-c1csc(-c2cc(O)c(C(=O)O)cc2F)n1 [US20230348450, Example 7] was run?
The IC50 was 60 nM.

With COC(=O)NCc1nc(C)c(-c2nsc(-c3cc(O)c(C(=O)O)cc3F)n2)s1 [US20230348450, Example 8] as the molecule, how does the IC50 read?
Its IC50 is 95 nM.

COC(=O)NCc1nc(C)c(-c2cccc(-c3ccc(C(=O)O)c(O)c3)n2)s1 [US20230348450, Example 9] was tested. Which IC50 did it give?
Its IC50 is 317 nM.

For CC(=O)NCc1nc(C)c(-c2csc(-c3cc(O)c(C(=O)O)cc3F)n2)s1 [US20230348450, Example 10], which IC50 is on record?
Its IC50 is 95 nM.

With COC(=O)NCc1nc(C)c(-c2csc(-c3cc(O)c(C(=O)O)cc3F)n2)s1 [US20230348450, Example 209] as the molecule, how does the IC50 read?
The IC50 was 63 nM and 59 nM.
